Reference: patent US20240382629A1, “HETEROBIVALENT AND HOMOBIVALENT AGENTS TARGETING FIBROBLAST ACTIVATION PROTEIN ALPHA AND/OR PROSTATE-SPECIFIC MEMBRANE ANTIGEN” (The Johns Hopkins University, priority 2021, published 2024)
Values joined by “and” are separate entries in the source; they are usually repeats but may differ in a detail not shown here. Equal entries are not always repeated.

Assay: Biodistribution of [^18F]JHU122047 with UAMC-01110 blocker
Type: in vivo, mouse
[1] = + Blocker UAMC-01110, 1 hr post injection, mean
[2] = + Vehicle, 1 hr post injection, mean
[3] = individual mouse, NOD/SCID, 120 min
[4] = individual mouse, NUDE, 120 min
[5] = mean (one sample; gamma counter error), NOD/SCID, 120 min

In the case of `N#C[C@@H]1CCCN1C(=O)CNC(=O)c1ccnc2ccc(OCCF)cc12` [[^18F]JHU122047], the “% ID/g Mean Bladder” value [1] is reported as 2.10 % ID/g, the “% ID/g Mean Bladder” value [2] is reported as 1.13 % ID/g and the “% ID/g Mean Blood” value (Blood, + Blocker UAMC-01110, 1 hr post injection, mean) is reported as 0.12 % ID/g. The “% ID/g Mean Blood” value (Blood, + Vehicle, 1 hr post injection, mean) was 0.36 % ID/g, the “% ID/g Blood” value (Blood, + Vehicle, 1 hr post injection, single mouse) was 0.38 % ID/g and 0.34 % ID/g and the “% ID/g Mean Brain” value [1] was 0.19 % ID/g. The “% ID/g Mean Brain” value [2] was 0.14 % ID/g, the “% ID/g Mean Fat” value [1] was 0.08 % ID/g and the “% ID/g Mean Fat” value [2] was 0.11 % ID/g. The “% ID/g Mean Heart” value (Heart, + Blocker UAMC-01110, 1 hr post injection, mean) was 0.38 % ID/g, the “% ID/g Mean Heart” value (Heart, + Vehicle, 1 hr post injection, mean) was 0.35 % ID/g and the “% ID/g Heart” value (Heart, + Vehicle, 1 hr post injection, single mouse) was 0.35 % ID/g. For the same compound, the “% ID/g Mean Kidney” value [1] was 0.60 % ID/g, the “% ID/g Mean Kidney” value [2] was 1.25 % ID/g and the “% ID/g Mean Large intestine” value [1] was 2.19 % ID/g. For the same compound, the “% ID/g Mean Large intestine” value [2] was 0.99 % ID/g, the “% ID/g Mean Liver” value (Liver, + Blocker UAMC-01110, 1 hr post injection, mean) was 0.66 % ID/g and the “% ID/g Mean Liver” value (Liver, + Vehicle, 1 hr post injection, mean) was 0.68 % ID/g. For the same compound, the “% ID/g Liver” value (Liver, + Vehicle, 1 hr post injection, single mouse) was 0.67 % ID/g, the “% ID/g Mean Lung” value (Lung, + Blocker UAMC-01110, 1 hr post injection, mean) was 0.33 % ID/g and the “% ID/g Mean Lung” value (Lung, + Vehicle, 1 hr post injection, mean) was 0.36 % ID/g. For the same compound, the “% ID/g Lung” value (Lung, + Vehicle, 1 hr post injection, single mouse) was 0.34 % ID/g and 0.37 % ID/g, the “% ID/g Mean Muscle” value [1] was 0.27 % ID/g and the “% ID/g Mean Muscle” value [2] was 0.34 % ID/g. The “% ID/g Mean Pancreas” value [1] was 0.23 % ID/g, the “% ID/g Mean Pancreas” value [2] was 0.33 % ID/g and the “% ID/g Mean Salivary gland” value [1] was 0.28 % ID/g. For the same compound, the “% ID/g Mean Salivary gland” value [2] was 0.58 % ID/g, the “% ID/g Mean Small intestine” value [1] was 8.53 % ID/g and the “% ID/g Mean Small intestine” value [2] was 2.48 % ID/g. For the same compound, the “% ID/g Mean Spleen” value [1] was 0.28 % ID/g, the “% ID/g Mean Spleen” value [2] was 0.26 % ID/g and the “% ID/g Mean Stomach” value [1] was 0.50 % ID/g. For the same compound, the “% ID/g Mean Stomach” value [2] was 0.32 % ID/g, the “% ID/g Mean Tumor” value [1] was 0.45 % ID/g and the “% ID/g Mean Tumor” value [2] was 1.96 % ID/g. For the same compound, the “Bladder % ID/g” value (individual mouse) was 12.70 % ID/g and 11.31 % ID/g, the “Brain % ID/g” value (individual mouse) was 0.02 % ID/g and 0.08 % ID/g and the “Fat % ID/g” value (individual mouse) was 0.07 % ID/g and 0.10 % ID/g. For the same compound, the “Femur % ID/g” value (individual mouse) was 0.87 % ID/g and 0.43 % ID/g, the “Kidney % ID/g” value (individual mouse) was 1.61 % ID/g and 1.54 % ID/g and the “Large intestine % ID/g” value (individual mouse) was 0.18 % ID/g and 0.19 % ID/g. The “Liver % ID/g” value (individual mouse) was 1.74 % ID/g and 1.65 % ID/g, the “Muscle % ID/g” value (individual mouse) was 0.07 % ID/g and 0.12 % ID/g and the “Pancreas % ID/g” value (individual mouse) was 0.07 % ID/g and 0.19 % ID/g. For the same compound, the “Salivary gland % ID/g” value (individual mouse) was 0.12 % ID/g and 0.14 % ID/g, the “Small intestine % ID/g” value (individual mouse) was 0.48 % ID/g and 0.45 % ID/g and the “Spleen % ID/g” value (individual mouse) was 0.10 % ID/g and 0.15 % ID/g. For the same compound, the “Stomach % ID/g” value (individual mouse) was 0.18 % ID/g and 0.17 % ID/g, the “Tumor % ID/g” value (individual mouse) was 0.21 % ID/g and 0.23 % ID/g and the “Bladder % ID/g” value [3] was 3.86 % ID/g. For the same compound, the “Blood % ID/g” value [3] was 0.40 % ID/g and 0.47 % ID/g, the “Brain % ID/g” value [3] was 0.04 % ID/g and the “Fat % ID/g” value [3] was 0.09 % ID/g and 0.18 % ID/g. The “Femur % ID/g” value [3] was 1.59 % ID/g, the “Heart % ID/g” value [3] was 0.20 % ID/g and 0.29 % ID/g and the “Kidney % ID/g” value [3] was 1.51 % ID/g and 1.58 % ID/g. The “Large intestine % ID/g” value [3] was 0.30 % ID/g and 0.45 % ID/g, the “Liver % ID/g” value [3] was 1.11 % ID/g and 0.88 % ID/g and the “Lung % ID/g” value [3] was 0.36 % ID/g and 0.57 % ID/g. For the same compound, the “Muscle % ID/g” value [3] was 0.25 % ID/g and 0.35 % ID/g, the “Pancreas % ID/g” value [3] was 0.38 % ID/g and 0.77 % ID/g and the “Salivary gland % ID/g” value [3] was 0.74 % ID/g and 0.62 % ID/g. The “Small intestine % ID/g” value [3] was 0.38 % ID/g and 0.95 % ID/g, the “Spleen % ID/g” value [3] was 0.26 % ID/g and 0.36 % ID/g and the “Stomach % ID/g” value [3] was 0.22 % ID/g and 0.35 % ID/g. The “Tumor % ID/g” value [3] was 3.13 % ID/g, the “Bladder % ID/g” value [4] was 1.31 % ID/g and 1.80 % ID/g and the “Blood % ID/g” value [4] was 0.66 % ID/g and 0.56 % ID/g. For the same compound, the “Brain % ID/g” value [4] was 0.05 % ID/g and 0.06 % ID/g, the “Fat % ID/g” value [4] was 0.13 % ID/g and 0.10 % ID/g and the “Femur % ID/g” value [4] was 2.27 % ID/g and 2.55 % ID/g. The “Heart % ID/g” value [4] was 0.34 % ID/g and 0.28 % ID/g, the “Kidney % ID/g” value [4] was 1.50 % ID/g and 1.43 % ID/g and the “Large intestine % ID/g” value [4] was 0.34 % ID/g and 0.41 % ID/g. For the same compound, the “Liver % ID/g” value [4] was 0.45 % ID/g and 0.42 % ID/g, the “Lung % ID/g” value [4] was 0.49 % ID/g and 0.56 % ID/g and the “Muscle % ID/g” value [4] was 0.49 % ID/g and 0.45 % ID/g. The “Pancreas % ID/g” value [4] was 0.53 % ID/g and 0.34 % ID/g, the “Salivary gland % ID/g” value [4] was 1.02 % ID/g and 0.78 % ID/g and the “Small intestine % ID/g” value [4] was 0.35 % ID/g and 0.31 % ID/g. The “Spleen % ID/g” value [4] was 0.22 % ID/g, the “Stomach % ID/g” value [4] was 0.27 % ID/g and 0.25 % ID/g and the “Tumor % ID/g” value [4] was 2.65 % ID/g and 3.51 % ID/g. For the same compound, the “Bladder % ID/g” value (mean) was 12.01 % ID/g, the “Brain % ID/g” value (mean) was 0.02 % ID/g and the “Fat % ID/g” value (mean) was 0.08 % ID/g. For the same compound, the “Femur % ID/g” value (mean) was 0.40 % ID/g, the “Kidney % ID/g” value (mean) was 1.57 % ID/g and the “Large intestine % ID/g” value (mean) was 0.18 % ID/g. For the same compound, the “Liver % ID/g” value (mean) was 1.70 % ID/g, the “Lung % ID/g” value (mean) was 0.38 % ID/g and the “Muscle % ID/g” value (mean) was 0.09 % ID/g. The “Pancreas % ID/g” value (mean) was 0.10 % ID/g, the “Salivary gland % ID/g” value (mean) was 0.13 % ID/g and the “Small intestine % ID/g” value (mean) was 0.47 % ID/g. For the same compound, the “Spleen % ID/g” value (mean) was 0.13 % ID/g, the “Stomach % ID/g” value (mean) was 0.17 % ID/g and the “Tumor % ID/g” value (mean) was 0.22 % ID/g. The “Bladder % ID/g” value [5] was 3.86 % ID/g, the “Femur % ID/g” value [5] was 1.59 % ID/g and the “Tumor % ID/g” value [5] was 3.13 % ID/g. The “Blood % ID/g” value (mean, NOD/SCID, 120 min) was 0.43 % ID/g, the “Brain % ID/g” value (mean, NOD/SCID, 120 min) was 0.04 % ID/g and the “Fat % ID/g” value (mean, NOD/SCID, 120 min) was 0.11 % ID/g. For the same compound, the “Heart % ID/g” value (mean, NOD/SCID, 120 min) was 0.24 % ID/g, the “Kidney % ID/g” value (mean, NOD/SCID, 120 min) was 1.55 % ID/g and the “Large intestine % ID/g” value (mean, NOD/SCID, 120 min) was 0.37 % ID/g. The “Liver % ID/g” value (mean, NOD/SCID, 120 min) was 1.00 % ID/g, the “Lung % ID/g” value (mean, NOD/SCID, 120 min) was 0.47 % ID/g and the “Muscle % ID/g” value (mean, NOD/SCID, 120 min) was 0.30 % ID/g. The “Pancreas % ID/g” value (mean, NOD/SCID, 120 min) was 0.57 % ID/g, the “Salivary gland % ID/g” value (mean, NOD/SCID, 120 min) was 0.58 % ID/g and the “Small intestine % ID/g” value (mean, NOD/SCID, 120 min) was 0.67 % ID/g. The “Spleen % ID/g” value (mean, NOD/SCID, 120 min) was 0.31 % ID/g, the “Stomach % ID/g” value (mean, NOD/SCID, 120 min) was 0.28 % ID/g and the “Bladder % ID/g” value (mean, NUDE, 120 min) was 1.55 % ID/g. The “Blood % ID/g” value (mean, NUDE, 120 min) was 0.61 % ID/g, the “Brain % ID/g” value (mean, NUDE, 120 min) was 0.06 % ID/g and the “Fat % ID/g” value (mean, NUDE, 120 min) was 0.12 % ID/g. For the same compound, the “Femur % ID/g” value (mean, NUDE, 120 min) was 2.41 % ID/g, the “Heart % ID/g” value (mean, NUDE, 120 min) was 0.31 % ID/g and the “Kidney % ID/g” value (mean, NUDE, 120 min) was 1.46 % ID/g. For the same compound, the “Large intestine % ID/g” value (mean, NUDE, 120 min) was 0.37 % ID/g, the “Liver % ID/g” value (mean, NUDE, 120 min) was 0.44 % ID/g and the “Lung % ID/g” value (mean, NUDE, 120 min) was 0.53 % ID/g. The “Muscle % ID/g” value (mean, NUDE, 120 min) was 0.47 % ID/g, the “Pancreas % ID/g” value (mean, NUDE, 120 min) was 0.43 % ID/g and the “Salivary gland % ID/g” value (mean, NUDE, 120 min) was 0.90 % ID/g. For the same compound, the “Small intestine % ID/g” value (mean, NUDE, 120 min) was 0.33 % ID/g, the “Spleen % ID/g” value (mean, NUDE, 120 min) was 0.22 % ID/g and the “Stomach % ID/g” value (mean, NUDE, 120 min) was 0.26 % ID/g. The “Tumor % ID/g” value (mean, NUDE, 120 min) was 3.08 % ID/g.
